The values below come from patent publication US12042561B2, “Hydrophobic molecule-induced branched polymer aggregates and their use” (ANP Technologies, Inc., priority 2011, dated 2024).

In data set [1] the test system is MCF-7 human breast cancer cells. Briefly: Cell survivability (MTS), MCF-7. Conditions: varying concentrations based on amount of drug, FIG. 17. An excerpt:
(§1) Metabolism in viable cells produces “reducing equivalents,” such as, NADH or NADPH. Such reducing compounds pass electrons to an intermediate electron transfer reagent that can reduce the tetrazolium product, MTS (Promega), into an aqueous, soluble formazan product, which is colored. At death, cells rapidly lose the ability to reduce tetrazolium products. The production of the colored formazan product, therefore, is proportional to the number of viable cells in culture.
(§2) The CellTiter 96® Aqueous products (Promega) are MTS assays for determining the number of viable cells in culture. […] A single reagent added directly to the assay wells at a recommended ratio of 20 μl reagent to 100 μl of culture medium was used. Cells were incubated 1-4 hours at 37° C. and then absorbance was measured at 490 nm.
(§3) Varying concentrations of CPT-11 and the camptothecin branched polymer aggregates described above were prepared.
(§4) Two cancer cell lines were maintained in suitable medium under recognized culture conditions. MCF-7 is a human breast cancer cell line and H460 is a human epithelial lung cancer cell line. Those cell lines were exposed to varying concentrations of CPT-11 and concentrations of the camptothecin aggregates based on the amount of drug. Cell survivability was assessed as described above.

Data set [2] deals with H460 human epithelial lung cancer cells. Briefly: Cell survivability (MTS), H460. Conditions: varying concentrations based on amount of drug, FIG. 18.
Description: as §1, §2, §3, §4

As to `CCc1c2c(nc3ccc(OC(=O)N4CCC(N5CCCCC5)CC4)cc13)-c1cc3c(c(=O)n1C2)COC(=O)[C@]3(O)CC` [CPT-11, Irinotecan], the cytotoxicity result was “increased with increasing drug concentration” in data set [1] and “dose response curve of cytotoxicity” in data set [2].
